In general, CC50 refers to the concentration giving 50% cytotoxicity. In general, pEC50 refers to the negative decadic logarithm of the EC50, by convention in mol/L.

pEC50: −log10 of the molar value. Where only a bound is given, the exact number is not on record here.

The nature of series [1]: Cytotoxicity against human MRC5 fibroblast cells assessed as reduction in cell viability measured after 3 days by fluorometry. It is filed as toxicity, cell-based. The settings on record: time 3 day.
A short description of series [2]: Cytotoxicity against Swiss mouse peritoneal macrophages assessed as reduction in cell viability measured after 5 days by microscopic analysis. It is filed as toxicity, cell-based, Macrophage. The following applies: time 5 day.
Series [3] in a line: Selectivity index, ratio of CC50 for Swiss mouse peritoneal macrophages to EC50 for antileishmanial activity against intracellular Leishmania infantum MHOM/MA(BE)/67 amastigotes infected in Swiss mouse peritoneal macrophages. The settings on record: read-out: Selectivity Index. It is filed as toxicity, cell-based.
For another series, the system named is Trypanosoma cruzi. Kind of series: Antitrypanosomal activity against intracellular Trypanosoma cruzi Tulahuen amastigotes expressing CL2 beta-galactosidase in human MRC5 cells assessed as parasite growth inhibition using chlorophenol red beta-D-galactopyranoside as substrate treated for 7 days by spectrophotometry. It is filed as functional, organism-based. The following applies: MRC5, 168 h.

For the next series, the system named is Leishmania infantum. Kind of series: Antileishmanial activity against intracellular Leishmania infantum MHOM/MA(BE)/67 amastigotes infected in Swiss mouse peritoneal macrophages assessed as parasite growth inhibition incubated for 5 days by giemsa staining based microscopic analysis. It is filed as functional, organism-based. The settings on record: MHOM/MA(BE)/67, Macrophage, 120 h.

Series [4] is described as follows: Selectivity index, ratio of CC50 for human MRC-5 cells to EC50 for antitrypanosomal activity against intracellular Trypanosoma cruzi Tulahuen amastigotes expressing CL2 beta-galactosidase in human MRC5 cells. It is filed as toxicity, cell-based. The settings on record: read-out: Selectivity Index.

In the case of `Nc1ncnc2c1ccn2[C@@H]1O[C@H](CO)[C@@H](O)[C@H]1O` [TUBERCIDIN], the CC50 at 72 h in series [1] was 2.23 µM. Moreover, the CC50 at 120 h in series [2] was found to be 0.13 µM. In addition, the selectivity ratio was 1 in series [3] and 6.6 in series [4]. Further, the pEC50 in the series with Trypanosoma cruzi was 6.47; with Leishmania infantum, 6.89.
In the case of `Nc1ncc2ccn([C@@H]3O[C@H](CO)[C@@H](O)[C@H]3O)c2n1`, the CC50 at 72 h in series [1] was more than 64 µM. Also, the CC50 at 120 h in series [2] is more than 64 µM. In addition, the pEC50 was 4.47 in the series with Trypanosoma cruzi and less than 4.19 in the series on Leishmania infantum. For the same compound, the selectivity ratio in series [4] is more than 1.89.
`CN(C)c1ncnc2c1ccn2[C@@H]1O[C@H](CO)[C@@H](O)[C@H]1O`: the CC50 at 72 h in series [1] worked out at 7.06 µM. Besides, in series [2], the CC50 at 120 h is 64 µM. Also, the pEC50 with Trypanosoma cruzi is 5.78; in the series with Leishmania infantum, less than 4.19. In addition, the selectivity ratio in series [4] turned out to be 4.28.
In the case of `Nc1nc(N)c2ccn([C@@H]3O[C@H](CO)[C@@H](O)[C@H]3O)c2n1`, the CC50 at 72 h in series [1] was more than 64 µM. The CC50 at 120 h in series [2] is more than 64 µM. The results for the selectivity ratio in series [3] and in series [4] were more than 2.99 and 6.6, respectively. The pEC50 in the series with Trypanosoma cruzi is 5.87; with Leishmania infantum, 4.67.
For the compound `CC(C)Nc1ncnc2c1ccn2[C@@H]1O[C@H](CO)[C@@H](O)[C@H]1O`, in series [1], the CC50 at 72 h is more than 64 µM. Moreover, the CC50 at 120 h in series [2] was more than 64 µM. Also, the pEC50 with Trypanosoma cruzi and in the series with Leishmania infantum was less than 4.19 each time.
As for `OC[C@H]1O[C@@H](n2ccc3c(NC4CCCC4)ncnc32)[C@H](O)[C@@H]1O`, in series [1], the cytotoxic concentration (CC50) at 72 h was more than 64 µM. Besides, the 50% cytotoxic concentration (CC50) at 120 h in series [2] is more than 64 µM. The selectivity ratio in series [3] is more than 1.83; in series [4], more than 4.41. The pEC50 with Trypanosoma cruzi is 4.84; in the series on Leishmania infantum, 4.46.
Regarding `OC[C@H]1O[C@@H](n2ccc3c(N4CCCCC4)ncnc32)[C@H](O)[C@@H]1O`, the CC50 at 72 h in series [1] was more than 64 µM. The CC50 at 120 h in series [2] was 2 µM. For the same compound, the selectivity ratio in series [3] is 1.8; in series [4], more than 8.27. The pEC50 with Trypanosoma cruzi was 5.11; in the series with Leishmania infantum, 5.95.
In the case of `CCCNc1ncnc2c1ccn2[C@@H]1O[C@H](CO)[C@@H](O)[C@H]1O`, the CC50 at 72 h in series [1] was more than 64 µM. The CC50 at 120 h in series [2] is more than 64 µM. The values for the pEC50 in the series with Trypanosoma cruzi and with Leishmania infantum were 4.85 and less than 4.19, respectively. Besides, in series [4], the selectivity ratio was more than 4.51.
For the compound `OC[C@H]1O[C@@H](n2ccc3c(NC4CC4)ncnc32)[C@H](O)[C@@H]1O`, in series [1], the half-maximal cytotoxic concentration (CC50) at 72 h was more than 64 µM. In series [2], the CC50 at 120 h was 1.25 µM. Also, the selectivity ratio is 3.47 in series [3] and more than 28.1 in series [4]. The pEC50 is 5.64 in the series with Trypanosoma cruzi and 6.44 in the series with Leishmania infantum.
For the compound `Nc1cnc2c(ccn2[C@@H]2O[C@H](CO)[C@@H](O)[C@H]2O)c1`, the CC50 at 72 h in series [1] is more than 64 µM. In series [2], the CC50 at 120 h was more than 64 µM. The pEC50 in the series on Trypanosoma cruzi and with Leishmania infantum was less than 4.19 throughout. Moreover, the selectivity ratio in series [4] was 7.9.
Regarding `OC[C@H]1O[C@@H](n2ccc3c(N4CCC4)ncnc32)[C@H](O)[C@@H]1O`, in series [1], the CC50 at 72 h is more than 64 µM. Besides, the CC50 at 120 h in series [2] was determined as 64 µM. The pEC50 with Trypanosoma cruzi was 5.18; in the series on Leishmania infantum, less than 4.19. In series [4], the selectivity ratio is more than 9.6.
Turning to `CCN(CC)c1ncnc2c1ccn2[C@@H]1O[C@H](CO)[C@@H](O)[C@H]1O`, the CC50 at 72 h in series [1] is more than 64 µM. Also, in series [2], the CC50 at 120 h was 64 µM. Moreover, the pEC50 in the series with Trypanosoma cruzi and in the series on Leishmania infantum was less than 4.19 each time.
On to `OC[C@H]1O[C@@H](n2ccc3c(NCc4ccccc4)ncnc32)[C@H](O)[C@@H]1O`, for which the CC50 at 72 h in series [1] is more than 64 µM. In addition, the CC50 at 120 h in series [2] turned out to be 5 µM. Moreover, the results for the selectivity ratio in series [3] and in series [4] were 4.59 and more than 8.56, respectively. The pEC50 with Trypanosoma cruzi is 5.13; in the series on Leishmania infantum, 5.96.
On to `CCCCNc1ncnc2c1ccn2[C@@H]1O[C@H](CO)[C@@H](O)[C@H]1O`, for which, in series [1], the CC50 at 72 h was more than 64 µM. In series [2], the CC50 at 120 h was more than 64 µM. In addition, the selectivity ratio is more than 16.7 in series [3] and more than 15.5 in series [4]. The pEC50 in the series on Trypanosoma cruzi was 5.38; with Leishmania infantum, 5.42.
`OC[C@H]1O[C@@H](n2ccc3c(Nc4ccccc4)ncnc32)[C@H](O)[C@@H]1O`: the CC50 at 72 h in series [1] is more than 64 µM. In series [2], the CC50 at 120 h turned out to be 2 µM. Also, the results for the selectivity ratio in series [3] and in series [4] were 1.46 and more than 8.11, respectively. In addition, the pEC50 with Trypanosoma cruzi was 5.10; with Leishmania infantum, 5.86.
As for `OC[C@H]1O[C@@H](n2ccc3c(N4CCOCC4)ncnc32)[C@H](O)[C@@H]1O`, in series [1], the cytotoxic concentration (CC50) at 72 h is more than 64 µM. The CC50 at 120 h in series [2] was more than 64 µM. Moreover, the pEC50 in the series on Trypanosoma cruzi and in the series with Leishmania infantum was less than 4.19 each time.
As to `C=CCNc1ncnc2c1ccn2[C@@H]1O[C@H](CO)[C@@H](O)[C@H]1O`, in series [1], the CC50 at 72 h is 8.9 µM. Moreover, the CC50 at 120 h in series [2] is 8 µM. Besides, the values for the selectivity ratio in series [3] and in series [4] were 1.33 and 3.45, respectively. In addition, the figures for the negative-log EC50 (pEC50) in the series on Trypanosoma cruzi and in the series with Leishmania infantum were 5.59 and 5.22, respectively.
Take `Nc1ccnc2c1ccn2[C@@H]1O[C@H](CO)[C@@H](O)[C@H]1O`: in series [1], the CC50 at 72 h turned out to be 17.9 µM. Besides, the CC50 at 120 h in series [2] is more than 64 µM. The figures for the selectivity ratio in series [3] and in series [4] were more than 1.65 and more than 47.1, respectively. Also, the pEC50 with Trypanosoma cruzi was 5.64; in the series on Leishmania infantum, 4.41.
On to `OC[C@H]1O[C@@H](n2ccc3c(N4CCCC4)ncnc32)[C@H](O)[C@@H]1O`, for which the 50% cytotoxic concentration (CC50) at 72 h in series [1] is more than 64 µM. For the same compound, the CC50 at 120 h in series [2] is 64 µM. Besides, the pEC50 with Trypanosoma cruzi and with Leishmania infantum was less than 4.19 in each case.
Turning to `CCNc1ncnc2c1ccn2[C@@H]1O[C@H](CO)[C@@H](O)[C@H]1O`, in series [1], the 50% cytotoxic concentration (CC50) at 72 h is more than 64 µM. In series [2], the CC50 at 120 h is more than 64 µM. Moreover, the selectivity ratio in series [3] is more than 125; in series [4], more than 12.6. Moreover, the pEC50 with Trypanosoma cruzi is 5.29; in the series with Leishmania infantum, 6.29.
Consider `CCCCCCCCCCCCCCCCOP(=O)([O-])OCC[N+](C)(C)C` [MILTEFOSINE], for which, in the series on Leishmania infantum, the negative-log EC50 (pEC50) was 5.08.
Turning to `CC1CCN(c2ncnc3c2ccn3[C@@H]2O[C@H](CO)[C@@H](O)[C@H]2O)CC1`, the CC50 at 72 h in series [1] is more than 64 µM. The CC50 at 120 h in series [2] turned out to be 8 µM. Further, the selectivity ratio in series [3] was 3.08; in series [4] it was more than 8.15. The pEC50 with Trypanosoma cruzi is 5.11; with Leishmania infantum, 5.59.
Regarding `Nc1ncnc2c1ccn2[C@@H]1O[C@H](CO)C[C@H]1O`, in series [1], the half-maximal cytotoxic concentration (CC50) at 72 h was more than 64 µM. For the same compound, in series [2], the CC50 at 120 h is more than 64 µM. For the same compound, the pEC50 in the series on Trypanosoma cruzi and with Leishmania infantum was less than 4.19 throughout.
Turning to `OC[C@H]1O[C@@H](n2ccc3c(NC4CCCCC4)ncnc32)[C@H](O)[C@@H]1O`, in series [1], the CC50 at 72 h was 44.6 µM. The CC50 at 120 h in series [2] was more than 64 µM. For the same compound, the results for the selectivity ratio in series [3] and in series [4] were more than 3.32 and 5.7, respectively. For the same compound, the pEC50 with Trypanosoma cruzi was 5.11; with Leishmania infantum, 4.71.
`CNc1ncnc2c1ccn2[C@H]1O[C@@H](CO)[C@H](O)[C@@H]1O`: the CC50 at 72 h in series [1] is more than 64 µM. Also, the CC50 at 120 h in series [2] is more than 64 µM. The negative logarithm of the EC50 (pEC50) with Trypanosoma cruzi is 4.49; with Leishmania infantum, less than 4.19. The selectivity ratio in series [4] was more than 1.98.
